According to patent publication US12708655B2, “Botanicals as WNT/beta-catenin activators, molecular pathway regulators, tissue regenerators and health biomarker regulators” (Arbor Life Holdings, Ltd., priority 2020, dated 2026):

Tests used:
androgen receptor = molecular target: T1, androgen receptor (Homo sapiens, UniProt P10275); conditions: human dermal papilla cells; cited from earlier work
T1 construct: nuclear translocation of the androgen receptor stimulated by DHT in human dermal papilla cells; host or cells: human dermal papilla cells
T1 sequence (P10275 1-920): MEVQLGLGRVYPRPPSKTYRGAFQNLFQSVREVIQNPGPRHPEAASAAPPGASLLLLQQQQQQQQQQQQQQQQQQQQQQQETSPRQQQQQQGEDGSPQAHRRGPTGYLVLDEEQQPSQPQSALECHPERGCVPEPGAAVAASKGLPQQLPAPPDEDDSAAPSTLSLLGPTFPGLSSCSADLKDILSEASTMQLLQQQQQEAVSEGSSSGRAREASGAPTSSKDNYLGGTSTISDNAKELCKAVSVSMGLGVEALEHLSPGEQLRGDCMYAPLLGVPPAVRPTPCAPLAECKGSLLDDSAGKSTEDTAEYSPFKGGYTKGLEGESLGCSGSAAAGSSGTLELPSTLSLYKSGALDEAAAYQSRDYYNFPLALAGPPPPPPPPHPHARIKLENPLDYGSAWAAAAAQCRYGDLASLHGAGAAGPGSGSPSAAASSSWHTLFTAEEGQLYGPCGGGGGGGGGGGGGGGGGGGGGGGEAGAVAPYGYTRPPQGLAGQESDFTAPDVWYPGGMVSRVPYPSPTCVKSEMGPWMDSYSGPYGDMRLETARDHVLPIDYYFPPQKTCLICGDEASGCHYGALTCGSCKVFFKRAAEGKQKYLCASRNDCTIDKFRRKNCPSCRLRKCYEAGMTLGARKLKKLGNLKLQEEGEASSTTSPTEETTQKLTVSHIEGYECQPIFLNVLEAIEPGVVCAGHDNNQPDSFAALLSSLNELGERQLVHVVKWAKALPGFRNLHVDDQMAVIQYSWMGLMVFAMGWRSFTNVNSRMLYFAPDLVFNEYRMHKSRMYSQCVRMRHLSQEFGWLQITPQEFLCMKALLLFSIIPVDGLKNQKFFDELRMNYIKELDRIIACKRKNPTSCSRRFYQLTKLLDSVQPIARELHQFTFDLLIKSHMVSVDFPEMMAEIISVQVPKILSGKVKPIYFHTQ

[1] = test system: LNCaP prostate cancer cells; conditions: cells stimulated by DHT; cited from earlier work
[2] = test system: human dermal papilla cells; conditions: in vitro; cited from earlier work
[3] = test system: androgentic alopecia and telogen effluvium in Women; test: Comparative analysis of clinical trial results in women versus standard of care, adjusted to 24 weeks; assay type: in vivo, human
[4] = test system: androgenetic alopecia and telogen effluvium in Men; test: Comparative analysis of clinical trial results in men versus standard of care, adjusted to 24 weeks; assay type: in vivo, human
[5] = test system: androgentic alopecia and telogen effluvium in Women; conditions: adjusted to 24 weeks, from clinical trial or systematic review; cited from earlier work
[6] = test system: androgenetic alopecia and telogen effluvium in Men; conditions: adjusted to 24 weeks, cited from earlier work

Row | SMILES | nuclear translocation of the androgen receptor stimulated by DHT (androgen receptor) | overgrowth of LNCaP prostate cancer cells [1] | proliferation of human dermal papilla cells [2] | Efficacy Factor Multiple vs 2% Minoxidil [3] | Efficacy Factor Multiple vs 2% Minoxidil [4] | Changes in Terminal Hairs per sq.cm, difference between active and placebo groups [5] [per sq.cm] | Changes in Terminal Hairs per sq.cm vs placebo ([6]; from clinical trial or systematic review) [per sq.cm] | Changes in Terminal hair count per sq·cm versus placebo, comparators ([6]; systematic reviews of randomized controlled trials) [per sq·cm]
1 | O=C(O)[C@H]1O[C@@H](Oc2cc3oc(-c4ccccc4)cc(=O)c3c(O)c2O)[C@H](O)[C@@H](O)[C@@H]1O [baicalin] | inhibited | dose-dependently inhibited | enhanced proliferation | – | – | – | – | –
2 | CC(C)(C)NC(=O)[C@H]1CC[C@H]2[C@@H]3CC[C@H]4NC(=O)C=C[C@]4(C)[C@H]3CC[C@]12C [finasteride 1 mg, finasteride] | – | – | – | −0.1 | 1.0 | −1.0 | 6.4 | 6.4
